Experimental data as given in patent US20220409747A1, “FIBROBLAST ACTIVATION PROTEIN (FAP)-TARGETED IMAGING AND THERAPY OF CANCERS AND OTHER FIBROTIC AND INFLAMMATORY DISEASES” (Purdue Research Foundation, priority 2019, published 2022).

Experiments:
[1] = biological target: T1, FAP5-expressing HT1080-FAP cells (human FAP-transfected) (Homo sapiens, UniProt Q12884); experiment: Confocal binding studies of FAP-targeting ligand on HT1080-FAP cells; assay type: cell-based
T1 construct: expressed in transfected cells; host or cells: HT1080
T1 sequence (Q12884 1-760): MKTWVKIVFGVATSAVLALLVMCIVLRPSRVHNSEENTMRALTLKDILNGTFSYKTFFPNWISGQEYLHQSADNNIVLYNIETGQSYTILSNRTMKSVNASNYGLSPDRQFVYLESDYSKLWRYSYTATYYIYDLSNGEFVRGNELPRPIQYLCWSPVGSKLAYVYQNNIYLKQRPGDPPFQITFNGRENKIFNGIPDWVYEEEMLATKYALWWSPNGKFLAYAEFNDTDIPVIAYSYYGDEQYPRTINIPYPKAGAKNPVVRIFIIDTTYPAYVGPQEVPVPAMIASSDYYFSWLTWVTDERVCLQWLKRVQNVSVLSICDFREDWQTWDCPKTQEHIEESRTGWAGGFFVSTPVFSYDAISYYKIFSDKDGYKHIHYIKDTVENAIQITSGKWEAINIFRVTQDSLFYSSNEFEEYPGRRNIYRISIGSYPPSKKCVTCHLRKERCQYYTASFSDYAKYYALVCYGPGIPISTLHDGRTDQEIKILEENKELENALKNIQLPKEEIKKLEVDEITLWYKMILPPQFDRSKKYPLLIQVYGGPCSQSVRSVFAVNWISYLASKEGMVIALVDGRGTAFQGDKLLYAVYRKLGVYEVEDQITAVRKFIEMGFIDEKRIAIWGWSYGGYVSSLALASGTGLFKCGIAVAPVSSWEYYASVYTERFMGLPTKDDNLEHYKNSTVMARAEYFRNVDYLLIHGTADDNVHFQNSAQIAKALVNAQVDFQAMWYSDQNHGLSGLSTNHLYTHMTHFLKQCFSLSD
Procedure: Method 1: HT1080-FAP cells ([…]) were seeded in 4-well confocal plates. The cells were allowed to grow as a monolayer over 24 h at 37° C. and were incubated with various concentrations of conjugate ranging from 3.0 nM (lowest) to 25 nM (highest) in 1% FBS in PBS for 1 h at 37° C. Cells were washed with 1% FBS (3×500 μL) and the cells were left in 500 μl of 1% FBS and images were acquired with confocal microscopy. Again, the PBS in cells was replaced with growth media and the cells were re-incubated at 37° C. for 8 to 48 h. Images acquired at different concentrations of the compound at 37° C. are shown in FIG. 3, at different time points are shown in FIG. 4, and with 100-fold excess of competition ligand are shown in FIG. 5.
Method 2: Human FAP-transfected HT1080-FAP cells were (100,000) were plated on 4-well confocal plates and incubated with different concentrations (50 nM, 25 nM, 12.5 nM, 6.25 nM, 3.125 nM and 1.65 nM) of the compound for 1 h at 37° C. The unbound fluorescence was removed by washing the cells 3× with medium, and cell-bound fluorescence was imaged using an Olympus confocal microscope. The experiment was done in triplicate.

[2] = biological target: T2, FAP5 on HT1080-FAP (HT1080-hFAP) cells (Homo sapiens, UniProt Q12884); experiment: Binding assay (cell-bound fluorescence, apparent Kd) on HT1080-FAP cells
T2 construct: expressed in transfected cells; host or cells: HT1080
T2 sequence (Q12884 1-760): T1 sequence (Q12884 1-760)
Procedure: Method 1: HT1080-FAP cells (200000 cells/well) were seeded in a 24-well plate. The cells were allowed to grow as a monolayer over 24 h and incubated with various concentrations of FAP-targeted rhodamine conjugate either in the presence or absence of excess competition ligand (ligand without dye). After incubating for 1 h at 4° C. the cells were washed 3× with PBS to remove unbound fluorescence. The cells were then dissolved in 1% SDS and the cell-bound fluorescence was measured using a Neo2 Plate Reader.
(§1) Method 2: 100,000 HT1080-hFAP and HT1080 cells were seeded in amine-coated 24-well plates to ensure cell adherence. Upon formation of a monolayer, cells were incubated with various concentrations of the compound in the presence or absence of excess of unlabeled ligand. After incubation for 1 h, the cells were washed 3× with medium to remove to unbound fluorescence and dissolved in 1% SDS. The cell-bound fluorescence was measured using a fluorescence spectrophotometer (NeO2 Plate reader) set with a λex=555 nm and λem=575 nm. Cell-bound fluorescence was plotted against various concentrations and the apparent Kd was determined by using one-site binding (hyperbola) curve fit in GraphPad prism7. The experiment was done in triplicate.

[3] = system: HT1080 cells that do not express FAP5; experiment: Binding assay on HT1080 cells that do not express FAP5; design: species or system human; conditions: FIG. 8
Procedure: as §1

[4] = biological target: T3, FAP (e.g., FAP5) on HEK-FAP cells (Homo sapiens, UniProt Q12884); experiment: Displacement binding curves in HEK-FAP cells; conditions: displacement binding (FIGS. 21-22), read-out: affinity for cells that express FAP
T3 construct: expressed in transfected cells; host or cells: HEK
T3 sequence (Q12884 1-760): T1 sequence (Q12884 1-760)

Row | time remaining localized and internalized to FAP5-expressing cells ([1]; 12.5 nM, e.g., 1 hour, 8 hours, 24 hours, or more (FIG. 4)) | localization to cells expressing FAP5 (confocal) ([1]; HT1080-FAP cells, 50 nM, 25 nM, 12.5 nM, and 6.5 nM (FIG. 3)) | Kd ([2]; cells expressing FAP5 (FIG. 7)) [nM] | binding to HT1080 cells expressing FAP5 in the presence of an unlabelled FAP5 ligand ([2]; competitor e.g., compound 8, FIG. 8) | Kd [4] [nM] | SMILES | binding to HT1080 cells that do not express FAP5 [3]
1 | at least 1 hour | localizes to cells | 5 to 15 | does not bind | 1 to 10 | CN(C)c1ccc2c(c1)OC1=CC(=[N+](C)C)C=CC1C2c1ccc(C(=O)NCCOCCOCCOCCOCCC(=O)NCCNC(=O)c2ccc(-c3cn(Cc4cccc5c4CN(C(=O)C[C@@H]4C[C@@H](C(=O)N6CC(F)(F)C[C@H]6C#N)NC4=O)C5)nn3)cc2)cc1C(=O)O (stereo partly drawn) [compound 1] | does not bind
2 | – | – | – | – | 1 to 10 | CN(C)c1ccc2c(-c3ccc(C(=O)NCCNC(=O)c4cccc5c4CN(C(=O)C[C@@H]4C[C@@H](C(=O)N6CC(F)(F)C[C@H]6C#N)NC4=O)C5)cc3C(=O)[O-])c3ccc(=[N+](C)C)cc-3oc2c1 [compound 5] | –
3 | – | – | – | – | 1 to 10 | CN(C)c1ccc2c(-c3ccc(C(=O)NCCNC(=O)CCc4cccc5c4CN(C(=O)C[C@@H]4C[C@@H](C(=O)N6CC(F)(F)C[C@H]6C#N)NC4=O)C5)cc3C(=O)[O-])c3ccc(=[N+](C)C)cc-3oc2c1 [compound 6] | –
4 | – | – | – | – | 1 to 10 | N#C[C@@H]1C[C@H](F)CN1C(=O)[C@@H]1C[C@@H](CC(=O)N2Cc3cccc(Cn4cc(-c5ccc(C(=O)NCCNC(=O)CCC(=O)O)cc5)nn4)c3C2)C(=O)N1 [compound 21] | –
